Laboratory results reported in patent publication US11192882B2, “Crystal form of small molecule immune compound, preparation method thereof and pharmaceutical composition containing the same” (SHENZHEN NEPTUNUS PHARMACEUTICAL RESEARCH INSTITUTE CO., …, priority 2018, dated 2021).

Assay: Stress testing (accelerated test for 10 days) of the solid: crystal form B and crude product
Assay type: physicochemical
Conditions: for Purity compared with day 0 (in words): accelerated test for 10 days
Method: Detection instrument: Agilent 1260 series (U.S.)
Chromatographic column: Waters Sunfire C18;
Mobile phase A: water-mobile phase acetonitrile B (80:20);
Column temperature: 40° C.; Detection wavelength: 390 nm.
Detection basis: High performance liquid chromatography method, Pharmacopoeia of the People's Republic of China, Part II Appendix VD
The obtained crystal form B was subjected to stability studies (accelerated test for 10 days), to compare the data of purity, maximum single impurity and total impurities of the new crystal form under the conditions of 60° C., humidity 92.5%, and light irradiation with the data on day 0.
The crude product of (3Z,6Z)-3-[((E)-3-(5-tert-butyl)-1H-imidazolyl-4-yl)meth ylene]-6-((E)-3-(3-fluorophenyl)-2-propenylene)piperazine-2,5-dione was subjected to stability studies (accelerated test for 10 days), to compare the data of purity, maximum single impurity of the crude product stored at 40° C., 60° C. to the data on day 0.

[1] = Day 10, sample 1, no stress condition given

With `CC(C)(C)c1nc[nH]c1/C=c1\[nH]c(=O)/c(=C/C=C/c2cccc(F)c2)[nH]c1=O` [Crude product, (3Z,6Z)-3-[((E)-3-(5-tert-butyl)-1H-imidazolyl-4-yl)methylene]-6-((E)-3-(3-fluorophenyl)-2-propenylene)piperazine-2,5-dione] the “Purity compared with crystal form B under the same conditions (in words)” value (60° C., day 5 and day 10) was “lower than that of the crystal form B”, the “Content (%)” value (crude product, 40° C. Day 5) was 99.08% and the “Maximum single impurity (%)” value (crude product, 40° C. Day 5) was 0.25(RRT: 0.95) %. The “Content (%)” value (crude product, 40° C. Day 10) was 98.68%, the “Maximum single impurity (%)” value (crude product, 40° C. Day 10) was 0.50(RRT: 0.95) % and the “Content (%)” value (crude product, 60° C. Day 5) was 96.89%. The “Maximum single impurity (%)” value (crude product, 60° C. Day 5) was 1.14(RRT: 0.91) %, the “Content (%)” value (crude product, 60° C. Day 10) was 95.27% and the “Maximum single impurity (%)” value (crude product, 60° C. Day 10) was 1.88(RRT: 0.91) %. The “Content (%)” value (crude product, Day 0) was 99.49% and the “Maximum single impurity (%)” value (crude product, Day 0) was 0.24(RRT: 0.95) %.

With `CC(C)(C)c1nc[nH]c1/C=c1\[nH]c(=O)/c(=C/C=C/c2cccc(F)c2)[nH]c1=O` [crystal form B, (3Z,6Z)-3-[((E)-3-(5-tert-butyl)-1H-imidazolyl-4-yl)methylene]-6-((E)-3-(3-fluorophenyl)-2-propenylene)piperazine-2,5-dione] the “Maximum single impurity (%)” value (Day 0) was 0.24 (RRT: 0.95) %, the “Purity (%)” value (Day 0) was 99.50% and the “Total impurities (%)” value (Day 0) was 0.50%. For the same compound, the “Maximum single impurity (%)” value (Day 5, 60° C.) was 0.24 (RRT: 0.95) %, the “Purity (%)” value (Day 5, 60° C.) was 99.50% and the “Total impurities (%)” value (Day 5, 60° C.) was 0.50%. The “Maximum single impurity (%)” value (Day 5, humidity 92.5%) was 0.24 (RRT: 0.95) %, the “Purity (%)” value (Day 5, humidity 92.5%) was 99.50% and the “Total impurities (%)” value (Day 5, humidity 92.5%) was 0.50%. For the same compound, the “Maximum single impurity (%)” value (Day 5, light irradiation) was 0.26 (RRT: 0.95) %, the “Purity (%)” value (Day 5, light irradiation) was 99.40% and the “Total impurities (%)” value (Day 5, light irradiation) was 0.60%. For the same compound, the “Maximum single impurity (%)” value (Day 10, 60° C.) was 0.24 (RRT: 0.95) %, the “Purity (%)” value (Day 10, 60° C.) was 99.50% and the “Total impurities (%)” value (Day 10, 60° C.) was 0.50%. For the same compound, the “Maximum single impurity (%)” value (Day 10, humidity 92.5%) was 0.24 (RRT: 0.95) %, the “Purity (%)” value (Day 10, humidity 92.5%) was 99.50% and the “Total impurities (%)” value (Day 10, humidity 92.5%) was 0.50%. For the same compound, the “Maximum single impurity (%)” value (Day 10, light irradiation) was 0.26 (RRT: 0.95) %, the “Purity (%)” value (Day 10, light irradiation) was 99.40% and the “Total impurities (%)” value (Day 10, light irradiation) was 0.60%. The “Maximum single impurity (%)” value [1] was 0.24 (RRT: 0.95) %, the “Purity (%)” value [1] was 99.50% and the “Total impurities (%)” value [1] was 0.50%. The “Purity compared with day 0 (in words)” value (light irradiation) was “slightly reduced” and the “Purity compared with day 0 (in words)” value (other conditions (60° C., humidity 92.5%)) was “stable”.
